According to the NIST ThermoML archive (doi:10.1021/je060271a):
± gives the expanded uncertainty stated by the source.

Conditions: 283.14 K, Liquid, Vibrating tube method

Measured: mass density

CCCCCCC(=O)OCC(COC(=O)CCCCCC)(COC(=O)CCCCCC)COC(=O)CCCCCC [pentaerythritol tetraheptanoate]
990.2 ± 1.2 kg/m3: 7429.3 kPa | 7442.8 kPa | 7456.9 kPa | 7471.1 kPa | 7501.3 kPa | 7604.7 kPa | 7682.9 kPa | 7715.2 kPa | 7823 kPa
989.4 ± 1.2 kg/m3: 5925.4 kPa | 6028.4 kPa | 6075.2 kPa | 6124.2 kPa | 6133.5 kPa | 6142.8 kPa | 6153.4 kPa | 6162.9 kPa | 6172.4 kPa | 6182.1 kPa | 6193.1 kPa | 6202.5 kPa | 6212.1 kPa | 6254.1 kPa
990 ± 1.2 kg/m3: 7032.3 kPa | 7084.7 kPa | 7109.5 kPa | 7137 kPa | 7149.8 kPa | 7165.1 kPa | 7190.7 kPa | 7203.7 kPa | 7219 kPa | 7232.1 kPa | 7287 kPa | 7329.2 kPa | 7355.8 kPa
990.3 ± 1.2 kg/m3: 7372.2 kPa | 7532 kPa | 7576.2 kPa | 7590.2 kPa | 7622 kPa | 7636.1 kPa | 7651 kPa | 7668.2 kPa | 7697.4 kPa | 7760.2 kPa | 7793 kPa | 7855.8 kPa
990.9 ± 1.2 kg/m3: 8578.8 kPa | 8758 kPa | 8820.1 kPa | 8839.6 kPa | 8863 kPa | 8882.8 kPa | 8923.2 kPa
990.5 ± 1.2 kg/m3: 7920.5 kPa | 7955 kPa | 8005.3 kPa | 8020.9 kPa | 8039.9 kPa | 8071.5 kPa | 8091.2 kPa | 8107.4 kPa | 8140 kPa | 8156.7 kPa | 8176.8 kPa | 8226.8 kPa | 8263.9 kPa | 8317.9 kPa | 8355.3 kPa
989.8 ± 1.2 kg/m3: 6677.7 kPa | 6723.8 kPa | 6735.3 kPa | 6782.8 kPa | 6794.2 kPa | 6807.8 kPa | 6818.9 kPa | 6830.8 kPa | 6844.4 kPa | 6868.3 kPa | 6981.6 kPa | 7020.3 kPa | 7057.7 kPa
990.1 ± 1.2 kg/m3: 7045.1 kPa | 7244.9 kPa | 7258.2 kPa | 7273.8 kPa | 7300 kPa | 7315.9 kPa | 7342.5 kPa | 7385.8 kPa | 7399.3 kPa | 7413.1 kPa | 7487.7 kPa | 7515.3 kPa | 7546.5 kPa | 7561.7 kPa
989.3 ± 1.2 kg/m3: 5880.4 kPa | 5899.2 kPa | 5907.7 kPa | 5916.4 kPa | 5935.4 kPa | 5952.8 kPa | 5962.7 kPa | 5980.7 kPa | 5989.5 kPa | 6009 kPa | 6017.5 kPa | 6037.6 kPa | 6046.5 kPa | 6066.2 kPa | 6094.9 kPa | 6104.1 kPa
989.7 ± 1.2 kg/m3: 6540.3 kPa | 6564.2 kPa | 6573.4 kPa | 6583.9 kPa | 6596.7 kPa | 6618.3 kPa | 6631.8 kPa | 6642.5 kPa | 6653 kPa | 6664.1 kPa | 6688.4 kPa | 6699.5 kPa | 6712.6 kPa | 6759.9 kPa | 6771.5 kPa | 6856.3 kPa
990.4 ± 1.2 kg/m3: 7729.3 kPa | 7744.5 kPa | 7775.4 kPa | 7808 kPa | 7841 kPa | 7871.2 kPa | 7889.8 kPa | 7904.8 kPa | 7939.2 kPa | 7970.7 kPa | 7986.3 kPa | 8056 kPa | 8123.4 kPa | 8193.5 kPa
990.7 ± 1.2 kg/m3: 8280.8 kPa | 8467.8 kPa | 8485.5 kPa | 8601.1 kPa | 8660.8 kPa | 8739.2 kPa
991 ± 1.2 kg/m3: 8777.1 kPa | 8902.7 kPa
989.2 ± 1.2 kg/m3: 5889.4 kPa | 5944.2 kPa | 5971.7 kPa | 6000.4 kPa
990.8 ± 1.2 kg/m3: 8446.4 kPa | 8503.5 kPa | 8524.7 kPa | 8542.8 kPa | 8560.9 kPa | 8619.5 kPa | 8638.2 kPa | 8679.6 kPa | 8698 kPa | 8716.6 kPa | 8800.4 kPa
990.6 ± 1.2 kg/m3: 8210.2 kPa | 8246.8 kPa | 8301 kPa | 8338.2 kPa | 8372.7 kPa | 8393.6 kPa | 8411 kPa | 8428.8 kPa
989.9 ± 1.2 kg/m3: 6746.7 kPa | 6879.7 kPa | 6894 kPa | 6905.9 kPa | 6917.3 kPa | 6929.4 kPa | 6943.4 kPa | 6955.3 kPa | 6967.2 kPa | 6993.5 kPa | 7005.9 kPa | 7072.1 kPa | 7096.9 kPa | 7124.4 kPa | 7178.1 kPa
989.6 ± 1.2 kg/m3: 6282.8 kPa | 6304.3 kPa | 6314.1 kPa | 6345.6 kPa | 6377.5 kPa | 6387.7 kPa | 6397.9 kPa | 6410 kPa | 6420.4 kPa | 6452.9 kPa | 6473.8 kPa | 6484 kPa | 6494.6 kPa | 6506.6 kPa | 6517 kPa | 6527.7 kPa | 6607.2 kPa
989.5 ± 1.2 kg/m3: 6055.5 kPa | 6084.6 kPa | 6113.4 kPa | 6223.2 kPa | 6232.9 kPa | 6242.4 kPa | 6263.6 kPa | 6273.3 kPa | 6294.6 kPa | 6325.9 kPa | 6335.9 kPa | 6355.6 kPa | 6367.7 kPa | 6431 kPa | 6440.8 kPa | 6463.6 kPa | 6550.9 kPa
